Results as given in patent US20220257741A1, “COMBINATION THERAPY FOR CANCER” (IO Biotech ApS, priority 2016, published 2022).
Where “and” joins values, the source holds several entries; their conditions need not be identical. Equal entries are not always repeated. Entries after “also recorded” stand apart in the source; their conditions may differ.

Tests used:
THP-1 cells = assay: 51Cr-release assay, PBMC killing of THP-1 (Example 4); assay type: cell-based; conditions: peptide 0.1 μM, day 17, range of E/T ratios
Protocol: Buffycoats were thawed (day 0), washed twice, resuspended in medium, counted and plated into wells as set out in Table Z4. THP-1 cells were irradiated with 30 GY and washed twice in medium. THP-1 cells were counted and added to PBMC containing wells as set out in Table Z4 (total volume 2 ml). Plates were placed in an incubator at 37 degrees. On days 7 and 14, 1 ml supernatant/well was removed. Cells were harvested and analyzed for cytotoxic activity on day 17. A standard ^51Cr-release assay was used to measure the cytotoxic potential of the peptide treated PBMCs. ^51Cr labeled THP-1 cells were used as target cells and peptide treated PBMCs as effector cells. Triton-X treated wells was used as maximum measurable lysis and medium alone as minimum lysis.
% Specific lysis=((cpmsample−cpmminimum)/(cpmmaximum−cpmminimum))×100%

[1] = test system: Tregs and MDSC in peripheral blood; assay: Flow cytometry of regulatory cells in peripheral blood of patients; assay type: in vivo, human; conditions: patients treated with Ipilimumab without the vaccine (data not shown)
Protocol: PBMC samples was thawed in 37° C. RPMI 1640 medium (Lonza) supplemented with 2.5 ml DNAse containing Pulmozyme (Roche) and 0.26 mmol MgCl (Herlev Hospital Pharmacy) per 100 ml buffer. All stainings were done in phosphate buffered saline (PBS)(Lonza) containing 0.5% bovine serum albumin (Sigma-Aldrich). The following antibodies were used: FoxP3-PE, HLA-DR-HV500, CD3-PE-Cy7, CD19-PE-Cy7, CD56-PE-Cy7, CD4-HV500, CD11b-APC, CD3-APC (purchased from BD Bioscience), CD33-FITC, CD124-PE (purchased from BD Pharmigen), HELIOS-PerCP-Cy5.5, CD14-BV421, CD25-BV421 (all purchased from Biolegend), CD127-FITC, CD39-PE-Cy7 (purchased from eBioscience). Additionally, all samples were stained with the LIVE/DEADR Fixable Near-IR Dead Cell Stain Kit (life technologies). For intracellular staining of transcription factors, we used the Foxp3/Transcription Factor Staining Buffer Set (eBioscience) according to the manufacturors instructions. Cells were acquired on a FACSCanto II using FACSDiva Software version 6.1.3 (BD Biosciences). Analysis of flow data was done using FlowJo software version 10 OSX (TreeStar, Inc., Ashland, Oreg.). Data-analysis was done after filtering of dead cells and doublets/triplets.
Tregs were defined as CD3+CD4+CD25highCD127-FOXP3+.
MDSC were defined as PBMC negative for lineage-markers CD3, CD19 and CD56 and additionally HLADR-/lowCD14+CD11b+CD33+CD124−.

[2] = Phase I clinical trial, adverse events graded by CTCAE v. 4.0; assay type: in vivo, human
Text: Patients were enrolled in a First-in-Human phase I clinical trial at the Department of Oncology at Herlev Hospital, University of Copenhagen (Herlev, Denmark) from March 2014 to August 2014. The study was originally designed as a two-armed phase I study, combining IDO1-derived peptide vaccination with standard-of-care treatment with either Ipilimumab or Vemurafenib. Only data from patients treated with Ipilimumab in combination with vaccine is reported. […]
Primary end-point was toxicity. In addition, immune-response against the vaccine peptide and the clinical benefit of treatment were assessed. […]
Safety of the study treatment was assessed in terms of occurrence of adverse events, graded according to Common Terminology Criteria for Adverse Events (CTCAE) version 4.0. Anti-tumour activity was evaluated with positron emission tomography-computed tomography (PET-CT) scans obtained at baseline (up to 28 days before treatment initiation) after 12 weeks and every 8-12 weeks thereafter until progression. CT scans were evaluated according to Response Evaluation Criteria In Solid Tumors (RECIST) version 1.1. […]

metastatic melanoma = conditions: phase III; cited from earlier work
PBMC = assay: Direct IFN-γ ELISpot of patient PBMC stimulated with IO102 peptide; assay type: cell-based, human; conditions: patients treated with Ipilimumab without IDO-vaccine, before and after three series
TC-1 tumour = TC-1 tumour model, peptide vaccination (Examples 7 and 8); assay type: in vivo, C57BL/6 mice
Protocol: C57BL/6 mice harbouring TC-1 tumour were treated with TC-1 specific E7-peptide ([…]; SEQ ID NO: 35) or IDO-Pep1 ([…]; SEQ ID NO: 33) and the efficacy of the peptide vaccines was assessed by tumour burden and survival. The mouse IDO peptide sequence (IDO-Pep1) was selected to provide a murine analog for the human IDO peptides tested in the earlier Examples, because the sequence of murine IDO1 differs to that of human IDO1.
4-6 week-old C57BL/6 mice were injected with 70,000 cell/ mouse of TC-1 cells. Treatment in respective groups was started when tumour reached an average size of approximately 0.075 cm3 (approx. 10 days after tumour inoculation). Peptides used for vaccination included TC1-specific E7-peptide ([…]; SEQ ID NO: 35) and IDO-Pep1 ([…]; SEQ ID NO: 33). The mouse IDO peptide was designed based on MHC class I and II binding algorithm. […] Mice were vaccinated two-three times with one-week interval, and the efficacy of the peptide vaccines was assessed by measuring tumour volume and/or overall survival.
C57BL/6 mice harbouring TC-1 tumour were treated with TC-1 specific E7-peptide ([…]; SEQ ID NO: 35), or IDO-Pep1 ([…]; SEQ ID NO: 33), or a combination of both E7 and IDO-Pep1. The efficacy of the vaccines was assessed by overall survival. […]

CILDSKLEVEALAQLLTFALK [IDO scrambled]
Allogenic killing (lysis) of THP-1 cells by PBMCs (THP-1 cells): induced less lysis of THP-1 cells

Ipilimumab
Level of MDSC in peripheral blood [1]: no change in MDSC
Level of Tregs in peripheral blood [1]: Reduced levels of Tregs
Toxicity, Ipilimumab ([2]; adverse reactions by CTCAE v. 4.0, one table line per patient (01i-13i), attributed by treating physician, Ipilimumab 3 mg/kg plus IO102 vaccine): Grade II choroiditis and None (3×) and Pruritus grade I, Grade I and diarrhoea, and Grade II rash, grade II and diarrhoea (2×) and Grade II rash and Grade II rosacea, grade III and Grade II pruritus and Grade I nausea
Adverse reactions most likely related to Ipilimumab treatment ([2]; individual patients, CTCAE grade): Two patients experienced grade II diarrhoea; also recorded: grade III diarrhoea; also recorded: two patients experienced grade II maculopapular rash; also recorded: flare in their pre-existing rosacea; also recorded: grade II choroiditis
Clinical benefit rate (metastatic melanoma): ~30%
Overall response rate (metastatic melanoma): 10.9%
Induction of IDO-specific cells (IO102 reactivity, ELISpot) (PBMC): no induction of IDO-specific cells

MTYENMDIL (listed as Mus musculus) [IDO-Pep1]
Anti-tumour effect (tumour volume and survival) (TC-1 tumour; 100 μg/mouse s.c. with PADRE and QuilA, therapeutic): anti-tumour protective effect; also recorded: greater protection than when vaccinated with tumour-specific peptide antigen, E7 peptide

RAHYNIVTF (Fragment of the E7 oncoprotein of HPV) [E7 peptide]
Protection (overall survival) (TC-1 tumour; 100 μg/mouse of each peptide s.c. with PADRE and QuilA): has therapeutic efficacy
